How the values were obtained:
Daudi = assay: 51Cr release toxicity assay; type: cell-based, human; settings: broad range of concentrations
Text: (§1) HS-Sultan, a human plasma cell line (Goldblum et al. (1973) Proc. Seventh Leucocyte Culture Conference, ed by Daguilland, Acad. Press N.Y. pp 15-28), Daudi, a B lymphoblastoid cell line (Klein et al. (1968) Cancer Res. V 28, p 1300), MoLT-4, an acute lymphoblastic T-cell leukemia line (Monowada et al. (1972) J. Nat'l Canc. Inst. V 49, p 891), and U-937, a human monocyte-like cell line (Koren et al. (1979) Nature V 279, p 891) were obtained from the American Type Culture Collection, Rockville, Md. These lines as well as HEp-2 a human epidermoid carcinoma line (a generous gift of Dr. R. Sontheimer, UTHSCD); Currie, a human renal cell carcinoma line (a generous gift of Dr. M. Prager, UTHSCD); and K562, a human erythroleukemia line (a generous gift of Dr. M. Bennett, UTHSCD) were maintained in culture in medium RMPI supplemented with 10% FBS. Human dermal fibroblasts (a generous gift of Dr. T. Geppert, UTHSCD) were serially passaged in culture as well while human umbilical vein endothelial cells (a generous gift of Dr. A. Johnson, UTHSCD) were used after one subculture Epttein Barr virus (EBV) transformed B lymphoblastoid cell lines JM.6 and SM.4 (kindly provided by Dr. J. Moreno, UTHSCD) and cloned EBV transformed B cell lines SDL-G2 and D8-219 (a generous gift of Drs. L. Stein and M. Dosch, Hospital for Sick Children, Toronto, Canada) were maintained in culture in medium RPMI supplemented with 10% FBS.
(§2) In some experiments, toxicity of Leu-Leu-OMe for a variety of cell populations was assessed by ^51 Cr release In assays where cells obtained from suspension culture were to be used, cells were labeled with Na2^51 CrO4 (ICN, Plainview, N.Y.) for 60-90 minutes at 37° C. and then washed three times. Cells were then suspended in PBS (2.5×10^6 /ml) and incubated in microtiter plates, 50 microL/well with indicated concentrations of Leu-Leu-OMe for 15 minutes at room temperature. […] Following ^51 Cr labeling, wells were thoroughly washed and varying concentrations of Leu-Leu-OMe added in 50 microL PBS and the plates incubated for 15 minutes at room temperature.
(§3) Following such initial serum-free incubations, 200 microL/well of medium RPMI containing 10% FBS were added and the plates incubated for another 4 hours prior to removal of 100 microliters of supernatant. Radioactivity in the supernatant was measured in an auto-gamma scintillation spectrometer (Packard Instrument Co., Downers Grove, Ill.). The percent specific release was calculated from the formula: [formula] in which maximal release refers to cpm obtained in wells containing 50% lysing agent (American Scientific Products, McGraw Park, Ill.) and spontaneous release refers to cpm released by cells incubated in control medium in the absence of Leu-Leu-OMe or the lysing agent. Only experiments in which spontaneous release was […] were used for subsequent data interpretation.
(§4) In developing the data expressed in FIG. 7, cells (2.5×10^6 /ml) were exposed to the indicated concentrations of Leu-Leu-OMe for 15 minutes at room temperature, then specific ^51 Cr release during the next four hours was assessed. Data for the EBV transformed lines JM.6, SDL-G2, D8-219, and SM.4, respectively, are shown in order from top to bottom.

U937 = assay: 51Cr release toxicity assay; type: cell-based, human
Text: as §1, §2, §3, §4

MoLT-4 = assay: 51Cr release toxicity assay; type: cell-based, human; settings: broad concentration range
Text: as §1, §2, §3, §4

K562 = assay: 51Cr release toxicity assay; type: cell-based, human
Text: as §1, §2, §3, §4

HS-Sultan = assay: 51Cr release toxicity assay; type: cell-based, human; settings: broad range of concentrations
Text: as §1, §2, §3, §4

[1] = system: EBV-transformed B cell lines or clones; assay: 51Cr release toxicity assay; type: cell-based, human
Text: as §1, §2, §3, §4

human erythrocytes (RBC) = assay: 51Cr release from RBC incubated with peptide ester alone; type: cell-based; settings: for ^51 Cr Release from RBC: Nil 410 + 12
Experimental: The following experiments were carried out to determine whether DPPI could generate a lytic product from Leu-Leu-OMe. In the experiment detailed in FIG. 12, ^51 Cr-labeled human erythrocytes (RBC) were incubated with varying concentrations of Leu-Leu-OMe alone or in the presence of purified bovine DPPI.

COC(=O)[C@H](CC(C)C)NC(=O)[C@@H](N)CC(C)C [Leu-Leu-OMe, L-leucyl-L-leucine methyl ester]
51Cr release and proliferative rate (Daudi): no significant ^51 Cr release or alteration in subsequent proliferative rate | concentration above which extensive 51Cr release and no viable proliferating cell (U937): more than 250 micromolar | toxicity (51Cr release) (U937; concentration-dependent): susceptible to concentration-dependent Leu-Leu-OMe toxicity | toxicity (51Cr release) (MoLT-4): no detectable Leu-Leu-OMe toxicity over a broad concentration range | 51Cr release and proliferative rate (K562; 100 micromolar or lower): no significant ^51 Cr release or alteration in subsequent proliferative rate | 51Cr release and proliferative capacity (K562; higher than 100 micromolar): modest amounts of ^51 Cr release and partial loss of proliferative capacity | 51Cr release and proliferative rate (HS-Sultan): no significant ^51 Cr release or alteration in subsequent proliferative rate | 51Cr release ([1]; 1 mM, some EBV lines): less than 20% | 51Cr release ([1]; 250 micromolar, other lines): 25-35% | toxicity (51Cr release) ([1]; less than 250 micromolar): no significant toxicity | ^51 Cr Release from RBC (human erythrocytes (RBC); 100 micro-M): 400 + 27 | ^51 Cr Release from RBC (human erythrocytes (RBC); 500 micro-M): 482 + 57 | ^51 Cr Release from RBC (human erythrocytes (RBC); 2500 micro-M): 482 + 121 | damage to RBC by compound alone, in words (human erythrocytes (RBC); no DPPI): results in no damage to RBC

— patent US5304474A, “Hydrophobic peptide esters and amides” (Board of Regents, The University of Texas System, priority 1991, dated 1994)
